Consider one compound from ChEMBL document CHEMBL5316291 (J Med Chem, 2023).

Active and inactive are the calls of the source. The rule behind the calls is not given here.

Experiment [1] has as its target T1, Protein mono-ADP-ribosyltransferase TIPARP (Homo sapiens) (UniProt Q7Z3E1).
T1 sequence (whole entry): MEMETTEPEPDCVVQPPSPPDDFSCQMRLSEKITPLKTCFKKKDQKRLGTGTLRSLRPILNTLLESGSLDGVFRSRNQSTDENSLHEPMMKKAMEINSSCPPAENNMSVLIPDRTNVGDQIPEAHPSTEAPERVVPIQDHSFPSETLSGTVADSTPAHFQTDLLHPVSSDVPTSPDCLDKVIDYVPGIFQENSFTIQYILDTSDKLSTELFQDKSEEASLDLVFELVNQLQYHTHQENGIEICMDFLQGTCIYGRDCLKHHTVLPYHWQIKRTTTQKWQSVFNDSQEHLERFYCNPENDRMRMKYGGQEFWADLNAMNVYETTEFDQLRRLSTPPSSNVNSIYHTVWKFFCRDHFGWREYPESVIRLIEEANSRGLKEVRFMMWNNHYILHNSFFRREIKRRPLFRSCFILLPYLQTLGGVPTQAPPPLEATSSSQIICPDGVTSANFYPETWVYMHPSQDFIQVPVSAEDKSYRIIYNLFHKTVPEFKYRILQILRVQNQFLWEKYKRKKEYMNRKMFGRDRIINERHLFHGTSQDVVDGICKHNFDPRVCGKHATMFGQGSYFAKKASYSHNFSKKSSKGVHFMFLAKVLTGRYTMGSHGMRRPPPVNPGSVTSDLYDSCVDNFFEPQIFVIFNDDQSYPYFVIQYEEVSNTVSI
Nature of the experiment: Inhibition of human recombinant N-terminal FLAG tagged PARP7 (400 to 657 end residues) at 100 nM incubated for 1 hr by ELISA assay relative to control. A general note: ELISA stands for enzyme-linked immunosorbent assay.

Experiment [2] addresses Poly [ADP-ribose] polymerase 1 (Homo sapiens, UniProt P09874). Briefly: Inhibition of human recombinant N-terminal GST-tagged PARP1 (2 to 1014 end residues) incubated for 1 hr by ELISA assay.
The target of experiment [3] is T2, Protein mono-ADP-ribosyltransferase TIPARP (Mus musculus) (UniProt Q8C1B2).
T2 sequence (whole entry): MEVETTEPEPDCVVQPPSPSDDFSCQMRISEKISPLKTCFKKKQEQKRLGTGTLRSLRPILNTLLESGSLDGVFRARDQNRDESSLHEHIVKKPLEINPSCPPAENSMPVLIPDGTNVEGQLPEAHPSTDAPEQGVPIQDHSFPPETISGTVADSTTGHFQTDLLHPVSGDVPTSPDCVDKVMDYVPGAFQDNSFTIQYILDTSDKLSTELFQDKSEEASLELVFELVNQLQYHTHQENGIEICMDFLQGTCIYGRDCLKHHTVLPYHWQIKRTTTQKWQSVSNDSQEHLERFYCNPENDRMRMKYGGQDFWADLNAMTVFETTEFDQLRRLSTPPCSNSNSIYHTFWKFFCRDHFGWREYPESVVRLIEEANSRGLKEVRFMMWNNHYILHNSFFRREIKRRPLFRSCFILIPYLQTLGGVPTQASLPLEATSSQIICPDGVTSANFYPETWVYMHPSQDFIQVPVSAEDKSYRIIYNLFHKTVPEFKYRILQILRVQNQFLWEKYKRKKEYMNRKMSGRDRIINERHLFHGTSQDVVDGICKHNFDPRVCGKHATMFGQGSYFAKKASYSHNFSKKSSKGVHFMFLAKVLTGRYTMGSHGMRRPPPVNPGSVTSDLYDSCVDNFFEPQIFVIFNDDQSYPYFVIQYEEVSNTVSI
Nature of the experiment: Inhibition of PARP7 in mouse CT26 cells assessed as increase in IFN-beta levels at 49 to 4000 nmol/L measured after 48 hrs by RT-qPCR analysis. Type of experiment: cell-based. To be noted: dose lower […], dose upper 4000.0 nmol/L. For orientation: In qPCR the cycle at which signal appears reflects the starting amount.

The target in experiment [4] is T3, Protein mono-ADP-ribosyltransferase TIPARP (Homo sapiens, UniProt Q7Z3E1).
T3 sequence (Q7Z3E1 whole entry): T1 sequence (whole entry)
Nature of the experiment: Inhibition of human recombinant N-terminal FLAG-tagged PARP7 (400 to 657 end residues) incubated for 1 hr by ELISA assay.

Experiment [5] deals with T2, Protein mono-ADP-ribosyltransferase TIPARP (Mus musculus). Nature of the experiment: Inhibition of PARP7 in mouse CT26 cells assessed as increase in […] levels at 49 to 4000 nmol/L measured after 48 hrs by RT-qPCR analysis. To be noted: dose lower […], dose upper 4000.0 nmol/L. Format: cell-based.

Chain of Poly [ADP-ribose] polymerase 1 (P09874 whole entry): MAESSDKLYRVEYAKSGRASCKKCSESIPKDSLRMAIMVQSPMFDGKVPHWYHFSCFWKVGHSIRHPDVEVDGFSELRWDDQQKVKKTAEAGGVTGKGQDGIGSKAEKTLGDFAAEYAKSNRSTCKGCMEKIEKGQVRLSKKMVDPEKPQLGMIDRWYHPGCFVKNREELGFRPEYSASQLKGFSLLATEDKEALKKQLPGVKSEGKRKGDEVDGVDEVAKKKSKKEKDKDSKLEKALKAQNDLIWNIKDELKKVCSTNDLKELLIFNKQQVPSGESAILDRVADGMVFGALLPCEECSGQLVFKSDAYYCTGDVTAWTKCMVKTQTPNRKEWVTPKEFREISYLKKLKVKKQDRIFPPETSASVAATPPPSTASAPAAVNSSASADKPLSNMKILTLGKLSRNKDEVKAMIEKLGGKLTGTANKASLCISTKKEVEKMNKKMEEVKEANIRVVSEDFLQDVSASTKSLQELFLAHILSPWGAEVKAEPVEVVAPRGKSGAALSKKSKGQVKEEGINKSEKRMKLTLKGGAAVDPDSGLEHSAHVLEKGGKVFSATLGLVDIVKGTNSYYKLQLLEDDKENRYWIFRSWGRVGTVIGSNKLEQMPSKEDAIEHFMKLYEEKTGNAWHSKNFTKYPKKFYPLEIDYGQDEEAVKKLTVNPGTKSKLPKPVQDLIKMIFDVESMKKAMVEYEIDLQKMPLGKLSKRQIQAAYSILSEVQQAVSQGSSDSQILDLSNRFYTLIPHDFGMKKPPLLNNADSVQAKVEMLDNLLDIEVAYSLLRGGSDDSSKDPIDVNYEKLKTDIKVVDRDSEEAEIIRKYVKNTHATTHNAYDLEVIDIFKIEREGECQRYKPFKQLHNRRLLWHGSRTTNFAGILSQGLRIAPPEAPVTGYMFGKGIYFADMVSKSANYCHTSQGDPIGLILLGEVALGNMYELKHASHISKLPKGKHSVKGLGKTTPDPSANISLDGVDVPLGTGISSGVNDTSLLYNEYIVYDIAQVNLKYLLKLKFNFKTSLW

By inhibition is commonly meant the drop in the measured response relative to a control, in per cent. Broadly, the IC50 is the concentration that gives 50% inhibition. Regarding `C[C@@H](CN1CC(C(=O)N2CCN(c3ncc(C(F)(F)F)cn3)CC2)C1)Nc1cn[nH]c(=O)c1C(F)(F)F`, the inhibition in experiment [1] came to 70.5%. Besides, the IC50 in experiment [2] is more than 5000 nM; in experiment [4], 7.6 nM. In addition, the inhibition result in experiment [3] and in experiment [5] was “Active” each time.
